# From patent US20150374673A1, “Combination Therapy for the Treatment of Nosocomial Pneumonia” (priority 2013, published 2015)
# Experiments:
# [1] = Serum and epithelial lining fluid (ELF) pharmacokinetics of ceftazidime-avibactam human simulated regimen in infected and uninfected mice; settings: for fT > MIC: MIC 4, human simulated CAZ-AVI 2000-500 mg q8h 2 h infusion; for Kp at 16 h / Kp at 18.5 h / Kp at 22 h / Kp at 24 h: female, ICR, mouse, epithelial lining fluid (ELF) vs serum, ELF point Penetration Ratio, ELF vs serum, third dosing interval
# Procedure: Pathogen-free, female ICR mice weighing approximately 25 g were acquired from Harlan Sprague Dawley, Inc. (Indianapolis, Ind.) and utilized throughout these experiments. Animals were maintained and used in accordance to National Research Council recommendations, and provided food and water ad libitum. Mice were rendered neutropenic with 100 and 250 mg/kg intraperitoneal injections of cyclophosphamide (Cytoxan®; Bristol-Myers Squibb, Princeton, N.J.) given one and four days prior to inoculation, respectively. Three days prior to inoculation, mice were also given a single 5 mg/kg intraperitoneal injection of uranyl nitrate. This produces a predictable degree of renal impairment to slow drug clearance. Two hours prior to the initiation of antimicrobial therapy, mice were lightly anesthetized using isofluorane (2.5% v/v in 100% oxygen carrier) until the respiratory rate decreased upon visual inspection. Pneumonia was induced by the instillation of 0.05 mL of a 10^7 CFU inoculum of the test isolate suspended in 3% mucin in normal saline. While the mouse is anesthetized, the inoculum is delivered into the animal's oral cavity, blocking the nares and holding the mouse in a vertical position. Aspiration of bacteria into the lungs occurred as the animals began to spontaneously respire.
# In these studies, we utilized the previously determined dosing regimen described above. Confirmatory serum pharmacokinetic studies were undertaken in infected mice. For these studies, infected neutropenic mice were dosed with the above calculated regimen and groups of six mice ? were euthanized at multiple time points throughout a 24 h period to confirm target exposures blood was collected via cardiac puncture and the serum samples were stored at −80° C. until analysis. Pharmacokinetic studies were undertaken to describe the epithelial lining fluid concentrations in infected mice. For these studies, infected neutropenic mice were dosed with the above calculated regimen and groups of six mice were euthanized at multiple time points throughout the third dosing period (i.e. 16-24 h). Once euthanized, serum and BAL samples were collected as described above. Serum and BAL samples were stored at −80° C. until analysis.
# [2] = system: S. aureus; test: MIC, CLSI broth microdilution in CAMHB with 0-10% pulmonary surfactant (avibactam fixed at 4 μg/mL in combination); type: cell-based, Staphylococcus aureus
# Procedure: The bacterial strains used in this testing were part of the microbiological culture collection housed at AstraZeneca R&D Boston (AstraZeneca Research Collection, designated ARC). The panel of bacterial isolates used for this testing was comprised of five CLSI QC reference strains and the remainder were either recent clinical isolates expressing β-lactamases or isolates from the primary bacterial screening panels.
# MIC values were determined using the CLSI broth microdilution methodology with slight variation. Stock compound mother plates were prepared and used to spot 2 μL aliquots of serial 2-fold drug dilutions to columns 1-11 of 96-well daughter plates using a Perkin-Elmer MiniTrak™ MultiPosition dispenser. […] An inoculum volume of 100 μL (5×10E^5 CFU/mL) in CAMHB containing 0, 1, 2.5, 5, or 10% pulmonary surfactant was added using a multichannel Finnpipette® to each well of the 96-well plate.
# The minimum inhibitory concentration (MIC) values against each organism/drug combination were determined using broth microdilution methodology according to CLSI guidelines. The recommended reference bacterial strains for each test group and reference compounds were incorporated into each test. For Gram-negatives, the reference bacterial strains were Escherichia coli ATCC 25922, E. coli ATCC 35218, Klebsiella pneumoniae ATCC 700603, and Pseudomonas aeruginosa ATCC 27853. Staphylococcus aureus ATCC 29213 was the reference bacterial strain for the Gram-positives.
# MIC values for individual isolates were read visually. The MICs for each compound or combination in pulmonary surfactant was compared to the compound or combination tested in CAMHB alone.
# [3] = system: P. aeruginosa; test: Neutropenic thigh infection model (CD-1 mice), exposure response of ceftazidime q2h and avibactam; type: in vivo, Pseudomonas aeruginosa; settings: for % fT>CT required to support a bacteriostatic effect: CT 1 mg/L; for Emax model maximum / Emax model minimum: ceftazidime q2h and avibactam q2h, SE between brackets; for % fT > CT1 of avibactam associated with 24-h stasis: CT1 = threshold concentration of 1 mg/L
# Procedure: CD-1 neutropenic mice were infected with appr. 10^6 cfu β-lactamase-producing P. aeruginosa strains in the thigh.
# Outbred female CD-1 mice (Charles River, Netherlands), 4 to 5 weeks old, weighing 20 to 25 g were used in the experiments. Granulocytopenia was induced by two doses of cyclophosphamide s.c.: one at four days (150 mg/kg) and the other at one day (100 mg/kg) before the infection experiment.
# The neutropenic mice were infected with 2 P. aeruginosa strains per animal, one in the left and one in the right thigh. 0.05 mL of bacterial suspension consisting of approximately 10^5-10^6 bacteria was inoculated intramuscularly. […] All dosing regimens were performed in at least two animals. At t=0 h, 2 mice were humanely sacrificed to determine the initial inoculum just before treatment. All other animals were sacrificed at t=24 h unless the welfare of the animals indicated earlier termination was necessary, following animal welfare regulations. Thighs were taken and moved to a pre-cooled 10-mL plastic tube (Transport Tube, Omnilabo, NL) ? containing 2 mL phosphate buffered saline (PBS; NaCl 8.00 g/L, Na2HPO42H2 1.44 g/L, KH2PO4 0.26 g/L, pH 7.2-7.4). Subsequently thighs were ground using an Ultra-Turrax (IKA Labortechnik, Germany). A tenfold dilution series was prepared and 3×10 μL plated (Chromagar, Biomerieux, NL) per dilution. The following day, colonies were counted and the number of cfu per thigh calculated. The drug effect was then determined as the difference between the log10[cfu/thigh] values at t=24 h and t=0 h (mean value of 2 mice) expressed as “dcfu”.
# The amount of avibactam administered varied in frequency and dose. […] The drug effect was determined as the difference between the log10 [cfu/thigh] values at t=24 h and t=0 h (mean value of 2 mice) expressed as dcfu. Free drug concentrations were used in all calculations. […] Oral presentation at the ? 52nd Interscience Conference on Antimicrobial Agents and Chemotherapy, San Francisco, Calif. Abstract #A-1760).
# [4] = 6 P. aeruginosa strains, with fixed ceftazidime q2h, thigh
# [5] = strain 1, thigh infection, Dose CAZ 32 mg/kg
# [6] = strain 5, thigh infection, Dose CAZ 64 mg/kg
# [7] = strain 7, thigh infection, Dose CAZ 64 mg/kg
# [8] = strain 11, thigh infection, Dose CAZ 64 mg/kg
# [9] = strain 18, thigh infection, Dose CAZ 64 mg/kg
# [10] = strain 19, thigh infection, Dose CAZ 32 mg/kg
smiles,measurement,setting,value
"NC(=O)[C@@H]1CC[C@@H]2CN1C(=O)N2OS(=O)(=O)[O-].[Na+] [avibactam, [(2S,5R)-2-carbamoyl-7-oxo-1,6-diazabicyclo[3.2.1]octan-6-yl]hydrogen sulfate]",fT > MIC,"[1]; ELF, infected mice",3%
same,fT > MIC,"[1]; ELF, uninfected mice",19%
same,fT > MIC,"[1]; Serum, infected mice",34%
same,fT > MIC,"[1]; Serum, uninfected mice",19%
same,Kp at 16 h,[1]; infected mice,0.59
same,Kp at 18.5 h,[1]; infected mice,0.66
same,Kp at 22 h,[1]; infected mice,0.69
same,Kp at 24 h,[1]; infected mice,0.8
same,Kp at 16 h,[1]; uninfected mice,0.86
same,Kp at 18.5 h,[1]; uninfected mice,0.74
same,Kp at 22 h,[1]; uninfected mice,0.93
same,Kp at 24 h,[1]; uninfected mice,0.95
same,MIC,"[2]; S. aureus ARC12 (CLSI QC strain, ATCC 29213), surfactant 0%",>64 mg/L
same,MIC,"[2]; S. aureus ARC12 (CLSI QC strain, ATCC 29213), surfactant 1%",>64 mg/L
same,MIC,"[2]; S. aureus ARC12 (CLSI QC strain, ATCC 29213), surfactant 2.5%",>64 mg/L
same,MIC,"[2]; S. aureus ARC12 (CLSI QC strain, ATCC 29213), surfactant 5%",>64 mg/L
same,MIC,"[2]; S. aureus ARC12 (CLSI QC strain, ATCC 29213), surfactant 10%",>64 mg/L
same,MIC,"[2]; S. aureus ARC516 (MRSA, quinolone-resistant), surfactant 0%",>64 mg/L
same,MIC,"[2]; S. aureus ARC516 (MRSA, quinolone-resistant), surfactant 1%",>64 mg/L
same,MIC,"[2]; S. aureus ARC516 (MRSA, quinolone-resistant), surfactant 2.5%",>64 mg/L
same,MIC,"[2]; S. aureus ARC516 (MRSA, quinolone-resistant), surfactant 5%",>64 mg/L
same,MIC,"[2]; S. aureus ARC516 (MRSA, quinolone-resistant), surfactant 10%",>64 mg/L
same,mean % fT>CT 1 mg/L for static effect,[3]; [4],36.3%
same,range of % fT>CT 1 mg/L for static effect,[3]; [4],14.1-62.5
same,% fT>CT required to support a bacteriostatic effect,"[3]; strain 7, thigh",30.2
same,% fT>CT required to support a bacteriostatic effect,"[3]; strain 18, thigh",74.1
same,% fT>CT required for static effect,"[3]; CT of 1 mg/L, dose fractionation studies, 2 strains, with ceftazidime q2h, thigh",30.2-74.1
same,"% fT > CT1 of avibactam associated with 24-h stasis, mean","[3]; mean of 6 strains (sd 17.8), thigh infection, CT1 = 1 mg/L",36.3%
same,Emax model maximum,[3]; strain 1,1.26
same,Emax model minimum,[3]; strain 1,≈′−727.5
same,TDD AVI associated with 24-h stasis,[3]; [5],123.70 mg/kg
same,log TDD AVI associated with 24-h stasis,[3]; [5],2.09
same,% fT > CT1 of avibactam associated with 24-h stasis,[3]; [5],37.2%
same,Emax model maximum,[3]; strain 5,≈0.70
same,Emax model minimum,[3]; strain 5,−3.25 (0.95)
same,TDD AVI associated with 24-h stasis,[3]; [6],33.59 mg/kg
same,log TDD AVI associated with 24-h stasis,[3]; [6],1.53
same,% fT > CT1 of avibactam associated with 24-h stasis,[3]; [6],14.1%
same,Emax model maximum,[3]; strain 7,1.81 (0.29)
same,Emax model minimum,[3]; strain 7,−2.83 (1.41)
same,TDD AVI associated with 24-h stasis,[3]; [7],267.47 mg/kg
same,log TDD AVI associated with 24-h stasis,[3]; [7],2.43
same,% fT > CT1 of avibactam associated with 24-h stasis,[3]; [7],50.4%
same,Emax model maximum,[3]; strain 11,1.40 (0.50)
same,Emax model minimum,[3]; strain 11,−2.95 (0.41)
same,TDD AVI associated with 24-h stasis,[3]; [8],77.88 mg/kg
same,log TDD AVI associated with 24-h stasis,[3]; [8],1.89
same,% fT > CT1 of avibactam associated with 24-h stasis,[3]; [8],29.1%
same,Emax model maximum,[3]; strain 18,0.83 (0.36)
same,Emax model minimum,[3]; strain 18,−2.36 (0.23)
same,TDD AVI associated with 24-h stasis,[3]; [9],58.91 mg/kg
same,log TDD AVI associated with 24-h stasis,[3]; [9],1.77
same,% fT > CT1 of avibactam associated with 24-h stasis,[3]; [9],24.2%
same,Emax model maximum,[3]; strain 19,2.46 (0.22)
same,Emax model minimum,[3]; strain 19,−1.42 (0.46)
same,TDD AVI associated with 24-h stasis,[3]; [10],541.34 mg/kg
same,log TDD AVI associated with 24-h stasis,[3]; [10],2.73
same,% fT > CT1 of avibactam associated with 24-h stasis,[3]; [10],62.5%
same,effect on ceftazidime static % fT>MIC,"[3]; thigh infection, all strains",reduced
